Blank lines part the entries; values can stand above or below the molecule they belong to. Active and inactive are the calls of the source.
Tests used:
[1] = target: Serine/threonine-protein kinase 38 (Homo sapiens, UniProt Q15208)
[2] = target: Serine/threonine-protein kinase 38-like (Homo sapiens, UniProt Q9Y2H1)
[3] = target: ALK tyrosine kinase receptor (Homo sapiens, UniProt Q9UM73); type: subcellular, K-562, COLO 205, SK-N-BE(2) and MV-4-11, Cell lysate; conditions: read-out: Kd apparent
[4] = target: T1, Tyrosine-protein kinase Mer (Homo sapiens, UniProt Q12866)
T1 sequence (Q12866 whole entry): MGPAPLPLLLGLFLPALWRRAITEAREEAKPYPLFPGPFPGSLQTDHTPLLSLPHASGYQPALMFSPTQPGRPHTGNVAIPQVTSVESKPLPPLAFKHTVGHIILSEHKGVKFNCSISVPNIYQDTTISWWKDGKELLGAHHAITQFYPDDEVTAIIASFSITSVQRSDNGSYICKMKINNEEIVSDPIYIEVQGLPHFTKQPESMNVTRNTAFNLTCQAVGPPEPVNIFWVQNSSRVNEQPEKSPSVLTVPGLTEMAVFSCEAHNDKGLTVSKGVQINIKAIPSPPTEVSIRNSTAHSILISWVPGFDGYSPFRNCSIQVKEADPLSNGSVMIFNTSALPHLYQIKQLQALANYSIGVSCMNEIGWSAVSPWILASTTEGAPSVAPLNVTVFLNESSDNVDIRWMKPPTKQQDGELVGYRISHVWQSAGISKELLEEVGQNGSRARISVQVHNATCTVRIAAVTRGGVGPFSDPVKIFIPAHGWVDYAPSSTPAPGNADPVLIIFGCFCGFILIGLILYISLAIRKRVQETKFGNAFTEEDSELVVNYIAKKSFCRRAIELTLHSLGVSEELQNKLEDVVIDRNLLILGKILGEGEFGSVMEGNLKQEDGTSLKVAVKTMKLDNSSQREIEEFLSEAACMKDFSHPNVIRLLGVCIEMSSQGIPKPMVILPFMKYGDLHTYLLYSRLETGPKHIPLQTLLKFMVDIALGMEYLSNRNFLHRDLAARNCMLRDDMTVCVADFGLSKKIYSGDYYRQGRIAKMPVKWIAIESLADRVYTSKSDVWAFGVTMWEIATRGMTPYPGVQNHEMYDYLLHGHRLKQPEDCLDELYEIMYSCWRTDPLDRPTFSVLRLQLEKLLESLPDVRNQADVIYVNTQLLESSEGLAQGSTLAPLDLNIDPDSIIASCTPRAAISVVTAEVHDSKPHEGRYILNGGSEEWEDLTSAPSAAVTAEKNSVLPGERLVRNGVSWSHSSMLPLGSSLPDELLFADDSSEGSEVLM

Misshapen-like kinase 1 = Misshapen-like kinase 1 (Homo sapiens, UniProt Q8N4C8)
[5] = target: Activin receptor type-1-like (Homo sapiens, UniProt P37023)
[6] = target: Cyclin-dependent kinase 18 (Homo sapiens, UniProt Q07002)
[7] = target: Eukaryotic peptide chain release factor GTP-binding subunit ERF3B (Homo sapiens, UniProt Q8IYD1)
[8] = target: Dual specificity tyrosine-phosphorylation-regulated kinase 1B (Homo sapiens, UniProt Q9Y463)
[9] = target: Ras-related C3 botulinum toxin substrate 1 (Homo sapiens, UniProt P63000)
[10] = target: Tyrosine-protein kinase JAK2 (Homo sapiens, UniProt O60674)
Note: in the data inactive means no Kd found up to 30 µM.

Chain of ALK tyrosine kinase receptor (Q9UM73 whole entry): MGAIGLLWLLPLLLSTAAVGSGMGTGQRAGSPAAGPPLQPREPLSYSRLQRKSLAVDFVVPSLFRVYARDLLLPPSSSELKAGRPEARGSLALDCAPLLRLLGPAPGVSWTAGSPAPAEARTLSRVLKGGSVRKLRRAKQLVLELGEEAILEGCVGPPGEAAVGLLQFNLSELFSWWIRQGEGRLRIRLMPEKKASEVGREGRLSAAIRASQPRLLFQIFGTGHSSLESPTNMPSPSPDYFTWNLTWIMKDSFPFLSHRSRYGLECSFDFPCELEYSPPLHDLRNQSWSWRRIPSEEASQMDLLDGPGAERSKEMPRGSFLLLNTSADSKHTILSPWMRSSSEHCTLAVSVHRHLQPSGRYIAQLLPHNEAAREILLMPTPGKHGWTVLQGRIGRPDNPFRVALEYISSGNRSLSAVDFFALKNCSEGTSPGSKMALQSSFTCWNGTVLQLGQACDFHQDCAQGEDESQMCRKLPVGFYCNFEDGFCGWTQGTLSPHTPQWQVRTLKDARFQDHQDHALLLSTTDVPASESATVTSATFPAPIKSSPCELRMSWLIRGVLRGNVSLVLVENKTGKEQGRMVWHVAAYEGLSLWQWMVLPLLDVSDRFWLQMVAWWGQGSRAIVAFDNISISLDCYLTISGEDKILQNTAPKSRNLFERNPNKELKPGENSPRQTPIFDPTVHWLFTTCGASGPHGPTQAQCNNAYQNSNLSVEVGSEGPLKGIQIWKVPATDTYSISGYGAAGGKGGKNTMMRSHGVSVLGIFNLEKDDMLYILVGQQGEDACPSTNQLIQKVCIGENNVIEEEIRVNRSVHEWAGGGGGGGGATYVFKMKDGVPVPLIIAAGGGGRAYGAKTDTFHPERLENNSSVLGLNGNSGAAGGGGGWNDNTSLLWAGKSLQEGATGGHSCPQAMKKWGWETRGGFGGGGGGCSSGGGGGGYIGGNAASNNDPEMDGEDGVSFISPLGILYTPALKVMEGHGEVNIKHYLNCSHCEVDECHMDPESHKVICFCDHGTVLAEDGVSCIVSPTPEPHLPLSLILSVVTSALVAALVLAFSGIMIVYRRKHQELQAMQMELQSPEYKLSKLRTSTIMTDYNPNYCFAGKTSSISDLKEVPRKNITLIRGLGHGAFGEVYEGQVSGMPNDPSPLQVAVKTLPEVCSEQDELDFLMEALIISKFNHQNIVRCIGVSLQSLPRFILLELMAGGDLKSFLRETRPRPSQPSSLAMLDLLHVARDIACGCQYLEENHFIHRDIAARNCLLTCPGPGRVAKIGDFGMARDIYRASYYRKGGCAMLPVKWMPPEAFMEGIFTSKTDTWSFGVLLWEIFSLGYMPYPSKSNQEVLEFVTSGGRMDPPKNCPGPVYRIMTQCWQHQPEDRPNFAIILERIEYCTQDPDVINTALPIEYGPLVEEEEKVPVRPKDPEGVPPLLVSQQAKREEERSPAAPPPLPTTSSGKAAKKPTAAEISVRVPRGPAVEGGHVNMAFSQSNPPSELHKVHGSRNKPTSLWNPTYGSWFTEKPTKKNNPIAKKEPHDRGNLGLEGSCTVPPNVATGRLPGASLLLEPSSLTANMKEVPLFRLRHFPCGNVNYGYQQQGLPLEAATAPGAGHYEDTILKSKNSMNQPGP
Chain of Tyrosine-protein kinase JAK2 (O60674 whole entry): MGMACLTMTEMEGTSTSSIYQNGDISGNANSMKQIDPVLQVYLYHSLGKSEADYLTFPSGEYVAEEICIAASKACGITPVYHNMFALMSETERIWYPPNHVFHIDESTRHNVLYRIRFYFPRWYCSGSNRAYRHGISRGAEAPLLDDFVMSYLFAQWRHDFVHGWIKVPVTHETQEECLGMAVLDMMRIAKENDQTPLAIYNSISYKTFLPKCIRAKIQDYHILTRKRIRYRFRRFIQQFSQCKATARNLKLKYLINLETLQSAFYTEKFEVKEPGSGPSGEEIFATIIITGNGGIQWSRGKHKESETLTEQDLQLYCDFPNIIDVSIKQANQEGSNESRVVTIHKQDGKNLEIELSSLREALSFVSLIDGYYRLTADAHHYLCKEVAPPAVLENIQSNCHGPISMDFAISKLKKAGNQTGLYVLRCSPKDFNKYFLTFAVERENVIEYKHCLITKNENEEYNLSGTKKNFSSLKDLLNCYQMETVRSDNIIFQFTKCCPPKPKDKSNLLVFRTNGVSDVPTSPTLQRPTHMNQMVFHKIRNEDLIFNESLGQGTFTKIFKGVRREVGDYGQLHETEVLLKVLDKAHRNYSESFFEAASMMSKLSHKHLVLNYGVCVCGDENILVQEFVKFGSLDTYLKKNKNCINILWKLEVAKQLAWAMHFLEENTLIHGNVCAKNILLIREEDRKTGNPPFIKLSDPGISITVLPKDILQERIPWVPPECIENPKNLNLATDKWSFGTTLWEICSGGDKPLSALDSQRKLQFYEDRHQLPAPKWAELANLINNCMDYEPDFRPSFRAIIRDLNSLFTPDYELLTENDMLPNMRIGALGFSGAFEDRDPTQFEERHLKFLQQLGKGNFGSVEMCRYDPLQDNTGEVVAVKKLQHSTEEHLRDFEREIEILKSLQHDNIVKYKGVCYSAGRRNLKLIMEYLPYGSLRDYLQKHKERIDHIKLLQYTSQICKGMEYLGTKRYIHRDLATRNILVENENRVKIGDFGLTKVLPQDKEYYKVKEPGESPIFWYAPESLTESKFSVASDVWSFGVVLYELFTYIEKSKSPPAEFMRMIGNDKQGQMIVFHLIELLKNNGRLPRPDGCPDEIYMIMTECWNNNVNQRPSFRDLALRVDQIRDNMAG
Chain of Serine/threonine-protein kinase 38 (Q15208 whole entry): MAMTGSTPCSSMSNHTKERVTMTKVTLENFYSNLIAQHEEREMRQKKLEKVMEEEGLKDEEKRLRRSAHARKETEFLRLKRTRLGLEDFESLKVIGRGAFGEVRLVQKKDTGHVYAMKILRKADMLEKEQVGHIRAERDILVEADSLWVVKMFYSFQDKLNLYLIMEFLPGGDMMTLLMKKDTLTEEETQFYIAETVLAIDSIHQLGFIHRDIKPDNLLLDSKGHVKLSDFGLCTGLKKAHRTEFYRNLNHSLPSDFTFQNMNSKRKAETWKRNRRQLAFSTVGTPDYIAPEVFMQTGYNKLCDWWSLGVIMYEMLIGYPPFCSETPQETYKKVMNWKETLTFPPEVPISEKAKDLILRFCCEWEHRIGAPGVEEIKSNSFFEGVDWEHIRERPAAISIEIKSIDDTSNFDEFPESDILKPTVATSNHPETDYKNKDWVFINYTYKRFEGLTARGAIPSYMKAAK
Chain of Activin receptor type-1-like (P37023 whole entry): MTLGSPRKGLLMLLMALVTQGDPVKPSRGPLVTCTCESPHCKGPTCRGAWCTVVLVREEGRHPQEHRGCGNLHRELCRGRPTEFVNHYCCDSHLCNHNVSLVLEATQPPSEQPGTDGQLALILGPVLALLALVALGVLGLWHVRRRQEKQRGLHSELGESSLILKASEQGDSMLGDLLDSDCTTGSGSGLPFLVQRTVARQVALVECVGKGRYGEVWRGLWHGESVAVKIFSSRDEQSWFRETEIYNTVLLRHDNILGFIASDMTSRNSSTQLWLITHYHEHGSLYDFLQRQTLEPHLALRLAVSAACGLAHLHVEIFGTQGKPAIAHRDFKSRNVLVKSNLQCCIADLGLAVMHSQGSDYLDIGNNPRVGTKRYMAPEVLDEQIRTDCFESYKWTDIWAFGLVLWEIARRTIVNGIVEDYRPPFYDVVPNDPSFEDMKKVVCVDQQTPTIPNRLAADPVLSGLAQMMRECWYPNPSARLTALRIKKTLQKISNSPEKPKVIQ
Chain of Misshapen-like kinase 1 (Q8N4C8 whole entry): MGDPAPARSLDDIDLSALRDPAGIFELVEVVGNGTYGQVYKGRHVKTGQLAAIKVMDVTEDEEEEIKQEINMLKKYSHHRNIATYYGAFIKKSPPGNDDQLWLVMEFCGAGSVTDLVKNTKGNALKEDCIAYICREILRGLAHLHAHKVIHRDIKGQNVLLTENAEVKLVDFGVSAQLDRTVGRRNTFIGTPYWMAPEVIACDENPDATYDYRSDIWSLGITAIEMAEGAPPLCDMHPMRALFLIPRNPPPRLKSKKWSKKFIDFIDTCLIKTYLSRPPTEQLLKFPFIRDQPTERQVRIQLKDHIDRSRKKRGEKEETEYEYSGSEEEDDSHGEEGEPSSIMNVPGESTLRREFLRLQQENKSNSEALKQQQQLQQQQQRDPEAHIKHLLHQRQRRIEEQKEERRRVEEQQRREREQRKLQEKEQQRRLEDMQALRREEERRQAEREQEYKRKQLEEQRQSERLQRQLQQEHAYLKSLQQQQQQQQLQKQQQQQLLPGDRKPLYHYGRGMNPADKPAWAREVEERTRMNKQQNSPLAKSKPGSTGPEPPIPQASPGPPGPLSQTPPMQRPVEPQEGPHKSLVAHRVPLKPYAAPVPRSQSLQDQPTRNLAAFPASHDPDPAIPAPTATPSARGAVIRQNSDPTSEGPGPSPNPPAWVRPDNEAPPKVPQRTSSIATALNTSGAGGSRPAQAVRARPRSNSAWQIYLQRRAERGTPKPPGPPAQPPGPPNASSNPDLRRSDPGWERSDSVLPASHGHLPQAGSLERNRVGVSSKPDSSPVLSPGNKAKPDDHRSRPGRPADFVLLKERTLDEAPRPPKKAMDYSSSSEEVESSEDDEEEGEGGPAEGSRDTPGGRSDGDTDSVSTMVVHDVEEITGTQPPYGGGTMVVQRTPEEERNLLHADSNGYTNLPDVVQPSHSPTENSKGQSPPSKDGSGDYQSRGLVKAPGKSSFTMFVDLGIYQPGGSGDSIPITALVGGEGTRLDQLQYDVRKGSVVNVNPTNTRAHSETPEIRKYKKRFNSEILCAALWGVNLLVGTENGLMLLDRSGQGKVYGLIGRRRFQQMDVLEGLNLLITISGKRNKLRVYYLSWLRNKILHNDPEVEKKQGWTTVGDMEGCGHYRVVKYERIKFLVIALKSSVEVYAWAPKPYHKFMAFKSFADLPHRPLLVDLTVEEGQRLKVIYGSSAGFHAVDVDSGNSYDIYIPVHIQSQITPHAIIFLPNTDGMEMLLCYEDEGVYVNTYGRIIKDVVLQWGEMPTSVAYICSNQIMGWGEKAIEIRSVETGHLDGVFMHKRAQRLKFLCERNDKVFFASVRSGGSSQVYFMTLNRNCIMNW

SMILES: O=c1[nH]c([C@@H]2CCCN2)nc2c1oc1ccc(Cl)cc12
Kd [1]: > 30 µM (inactive)
Kd [2]: > 30 µM (inactive)

SMILES: Cn1cc(-c2[nH]c3cc(NC(=O)[C@H](N)C4CCCCC4)cc4c3c2C=NNC4=O)cn1
Kd [3]: > 30 µM (inactive)
Kd [4]: 0.018 µM
Kd (Misshapen-like kinase 1): 0.02 µM
Kd [2]: > 30 µM (inactive)

SMILES: Cc1c(NC(=O)OC[C@@H]2COCCN2)cn2ncnc(Nc3ccc4c(cnn4Cc4cccc(F)c4)c3)c12 [AC-480]
Kd [5]: > 30 µM (inactive)

SMILES: C=CCn1c(=O)c2cnc(Nc3ccc(N4CCN(C)CC4)cc3)nc2n1-c1cccc(C(C)(C)O)n1 [ADAVOSERTIB]
Kd [6]: > 30 µM (inactive)
Kd [4]: > 30 µM (inactive)
Kd [1]: > 30 µM (inactive)
Kd [2]: > 30 µM (inactive)

SMILES: CN(C)C/C=C/C(=O)Nc1cc2c(Nc3ccc(F)c(Cl)c3)ncnc2cc1O[C@H]1CCOC1 [AFATINIB]
Kd [7]: > 30 µM (inactive)

SMILES: CCc1cc2c(cc1N1CCC(N3CCOCC3)CC1)C(C)(C)c1[nH]c3cc(C#N)ccc3c1C2=O [ALECTINIB]
Kd [6]: > 30 µM (inactive)
Kd [8]: > 30 µM (inactive)
Kd [7]: > 30 µM (inactive)
Kd [4]: > 30 µM (inactive)
Kd (Misshapen-like kinase 1): > 30 µM (inactive)

SMILES: S=C(NCc1ccc2c(c1)OCO2)N1CCN(c2ncnc3c2oc2ccccc23)CC1 [AMUVATINIB]
Kd [4]: > 30 µM (inactive)
Kd (Misshapen-like kinase 1): > 30 µM (inactive)

SMILES: NC[C@@](O)(c1ccc(Cl)cc1)c1ccc(-c2cn[nH]c2)cc1 [AT-13148]
Kd [7]: > 30 µM (inactive)
Kd (Misshapen-like kinase 1): > 30 µM (inactive)
Kd [9]: > 30 µM (inactive)
Kd [1]: > 30 µM (inactive)

SMILES: CCN(CCCOc1ccc2c(Nc3cc(CC(=O)Nc4cccc(F)c4)n[nH]3)ncnc2c1)CCOP(=O)(O)O [BARASERTIB]
Kd [4]: > 30 µM (inactive)
Kd (Misshapen-like kinase 1): > 30 µM (inactive)

SMILES: COc1ccc(-c2ccc3ncc4c(c3c2)n(-c2ccc(N3CCNCC3)c(C(F)(F)F)c2)c(=O)n4C)cn1 [BGT-226 FREE BASE]
Kd (Misshapen-like kinase 1): > 30 µM (inactive)

SMILES: COc1cc2nccc(Oc3ccc(NC(=O)C4(C(=O)Nc5ccc(F)cc5)CC4)cc3)c2cc1OC [CABOZANTINIB]
Kd [3]: > 30 µM (inactive)
Kd [8]: > 30 µM (inactive)
Kd [7]: > 30 µM (inactive)
Kd [10]: > 30 µM (inactive)

SMILES: CC1(COc2ccc3c(c2)ncn3-c2ccc3cccc(N4CCC(N)CC4)c3n2)COC1 [CRENOLANIB]
Kd [7]: > 30 µM (inactive)
Kd [10]: > 30 µM (inactive)
Kd [2]: > 30 µM (inactive)

SMILES: COc1cc2ncnc(Nc3ccc(F)c(Cl)c3)c2cc1NC(=O)/C=C/CN1CCCCC1 [DACOMITINIB ANHYDROUS]
Kd [2]: > 30 µM (inactive)

SMILES: Cn1c(=O)n(-c2ccc(C(C)(C)C#N)cc2)c2c3cc(-c4cnc5ccccc5c4)ccc3ncc21 [DACTOLISIB]
Kd [7]: > 30 µM (inactive)
Kd (Misshapen-like kinase 1): > 30 µM (inactive)
Kd [1]: > 30 µM (inactive)
Kd [2]: > 30 µM (inactive)

SMILES: CC[C@@](C)(Nc1ccnc(-c2c[nH]c3ncccc23)n1)C(=O)NCC(F)(F)F [DECERNOTINIB]
Kd [1]: > 30 µM (inactive)

SMILES: CNC(=O)c1ccc(Nc2ncc(C(F)(F)F)c(NCc3nccnc3N(C)S(C)(=O)=O)n2)cc1 [DEFACTINIB]
Kd [6]: > 30 µM (inactive)
Kd [8]: > 30 µM (inactive)

SMILES: O=S(=O)(c1cccc2cnccc12)N1CCCNCC1 [FASUDIL]
Kd [7]: > 30 µM (inactive)
Kd [9]: > 30 µM (inactive)

SMILES: COc1cc(Nc2ncc(F)c(Nc3ccc4c(n3)N(COP(=O)(O)O)C(=O)C(C)(C)O4)n2)cc(OC)c1OC [FOSTAMATINIB]
Kd [8]: > 30 µM (inactive)
Kd [10]: > 30 µM (inactive)
Kd [2]: > 30 µM (inactive)

SMILES: CCc1nc(C(N)=O)c(Nc2ccc(N3CCC(N4CCN(C)CC4)CC3)c(OC)c2)nc1NC1CCOCC1 [GILTERITINIB]
Kd [9]: > 30 µM (inactive)
Kd [1]: > 30 µM (inactive)

SMILES: Cc1c(Cn2c(C)nc3c(C(=O)O)cc(N4CCOCC4)cc32)cccc1C(F)(F)F [GSK-2636771]
Kd [6]: > 30 µM (inactive)
Kd [9]: > 30 µM (inactive)

SMILES: O=S(=O)(c1cccc2c(O)nccc12)N1CCCNCC1 [HYDROXYFASUDIL]
Kd [7]: > 30 µM (inactive)
Kd [10]: > 30 µM (inactive)
Kd [4]: > 30 µM (inactive)
Kd [2]: > 30 µM (inactive)

SMILES: C#Cc1cccc(Nc2ncnc3cc4c(cc23)OCCOCCOCCO4)c1 [ICOTINIB]
Kd [6]: > 30 µM (inactive)
Kd [8]: > 30 µM (inactive)
Kd [4]: > 30 µM (inactive)
Kd (Misshapen-like kinase 1): > 30 µM (inactive)
Kd [1]: > 30 µM (inactive)

SMILES: C[C@]1(O)C[C@@H](c2nc(-c3ccc4ccc(-c5ccccc5)nc4c3)c3c(N)nccn32)C1 [LINSITINIB]
Kd [5]: > 30 µM (inactive)
Kd [4]: > 30 µM (inactive)
Kd (Misshapen-like kinase 1): > 30 µM (inactive)

SMILES: Cc1ccc(C(=O)Nc2ccc(Oc3cc4cnn(C)c4cc3-c3cn[nH]c3)c(F)c2)c(=O)n1-c1ccc(F)cc1 [MERESTINIB]
Kd (Misshapen-like kinase 1): > 30 µM (inactive)
Kd [2]: > 30 µM (inactive)

SMILES: O=C(NOC[C@H](O)CO)c1ccc(F)c(F)c1Nc1ccc(I)cc1F [MIRDAMETINIB]
Kd [5]: > 30 µM (inactive)
Kd [10]: > 30 µM (inactive)
Kd [4]: > 30 µM (inactive)
Kd (Misshapen-like kinase 1): > 30 µM (inactive)

SMILES: CC1(C)CNc2cc(NC(=O)c3cccnc3NCc3ccncc3)ccc21 [MOTESANIB]
Kd [7]: 0.003 µM

SMILES: O=C(NC[C@H](O)CO)c1ccncc1Nc1ccc(I)cc1F [PIMASERTIB]
Kd [3]: > 30 µM (inactive)
Kd [7]: > 30 µM (inactive)
Kd [10]: > 30 µM (inactive)
Kd (Misshapen-like kinase 1): > 30 µM (inactive)

SMILES: COc1cc(F)c(F)c(Nc2ccc(I)cc2F)c1NS(=O)(=O)C1(C[C@H](O)CO)CC1 [REFAMETINIB]
Kd (Misshapen-like kinase 1): > 30 µM (inactive)
Kd [9]: > 30 µM (inactive)
Kd [1]: > 30 µM (inactive)
Kd [2]: > 30 µM (inactive)

SMILES: COCCN1CCN(Cc2ccc(-c3n[nH]c4c3C(=O)c3c(NC(=O)NN5CCOCC5)cccc3-4)cc2)CC1 [RGB-286638]
Kd [8]: > 30 µM (inactive)
Kd [4]: > 30 µM (inactive)

SMILES: O=C(O)c1ccc2c(c1)nc(Nc1cccc(Cl)c1)c1ccncc12 [SILMITASERTIB]
Kd (Misshapen-like kinase 1): > 30 µM (inactive)
Kd [2]: > 30 µM (inactive)

SMILES: CN1CCN(c2nc(C3=C(c4c[nH]c5ccccc45)C(=O)NC3=O)c3ccccc3n2)CC1 [SOTRASTAURIN]
Kd [3]: > 30 µM (inactive)
Kd [4]: > 30 µM (inactive)
Kd (Misshapen-like kinase 1): 0.041 µM (active)
Kd [9]: > 30 µM (inactive)
Kd [2]: > 30 µM (inactive)

SMILES: O[C@H]1CC[C@H](Nc2ncc3nc(Nc4c(F)cc(F)cc4F)n([C@H]4CCOC4)c3n2)CC1 [TANZISERTIB]
Kd [3]: > 30 µM (inactive)
Kd [8]: > 30 µM (inactive)
Kd [4]: > 30 µM (inactive)
Kd (Misshapen-like kinase 1): > 30 µM (inactive)
Kd [2]: > 30 µM (inactive)

SMILES: CNC(=O)c1cc(COc2nnc(Nc3ccc(Cl)cc3)c3ccoc23)ccn1 [TELATINIB]
Kd [3]: > 30 µM (inactive)
Kd (Misshapen-like kinase 1): > 30 µM (inactive)

SMILES: Cc1cc(-c2cc(OC(=O)c3ccccc3)ccc2Cl)cc2nnc(Nc3ccc(OCCN4CCCC4)cc3)nc12 [TG100-801]
Kd [8]: > 30 µM (inactive)
Kd [10]: > 30 µM (inactive)
Kd [2]: > 30 µM (inactive)

SMILES: C[C@@H]1COC(Nc2ccc3ncnc(Nc4ccc(OCc5nccs5)c(Cl)c4)c3c2)=N1 [VARLITINIB]
Kd [3]: > 30 µM (inactive)
Kd [4]: > 30 µM (inactive)
Kd (Misshapen-like kinase 1): > 30 µM (inactive)
Kd [1]: > 30 µM (inactive)
Kd [2]: > 30 µM (inactive)

SMILES: COc1cc2ncnc(Nc3ccc(O)cc3)c2cc1OC [WHI-P131]
Kd [3]: > 30 µM (inactive)
Kd [1]: > 30 µM (inactive)

The next lines start with the values.

Kd [7]: > 30 µM (inactive)
Kd [10]: > 30 µM (inactive)
SMILES: Cc1cc(Nc2nc(N[C@@H](C)c3ncc(F)cn3)ncc2Cl)n[nH]1 [AZD-1480]

Kd [2]: > 30 µM (inactive)
SMILES: COc1cccc(Nc2ncnn3ccc(CN4CC[C@@H](N)[C@H](O)C4)c23)c1 [BMS-690514]

Kd [6]: > 30 µM (inactive)
Kd [4]: > 30 µM (inactive)
Kd [2]: > 30 µM (inactive)
SMILES: c1cc(OCCN2CCCCC2)cc(-c2n[nH]c3ccc(-c4nc[nH]n4)cc23)c1 [CC-401]

Kd [1]: > 30 µM (inactive)
SMILES: COc1cc2ncnc3c2cc1OCCCCCN(C)Cc1ccc(Br)cc1N3 [JNJ-26483327]

Kd [7]: > 30 µM (inactive)
SMILES: COc1cccc2cc(-c3nc([C@H]4CC[C@H](C(=O)O)CC4)n4ncnc(N)c34)[nH]c12 [OSI-027]

Kd [6]: > 30 µM (inactive)
Kd [4]: > 30 µM (inactive)
Kd (Misshapen-like kinase 1): > 30 µM (inactive)
SMILES: O=C(Nc1ccc(OC(F)(F)F)cc1)c1sccc1NCc1ccnc2ccccc12 [OSI-930]

Kd [6]: > 30 µM (inactive)
Kd [1]: > 30 µM (inactive)
SMILES: CC(C)(O)CC(=O)NCCn1ccc2ncnc(Nc3ccc(Oc4cccc(C(F)(F)F)c4)c(Cl)c3)c21 [TAK-285]
